Legend:
[1] = Stability of disulfiram with zinc gluconate or copper gluconate after 4 weeks at 40° C.; type: physicochemical; conditions: 4 weeks @ 40° C./75% RH; Actual Conc. 0.040 mg/mL
Description: Stability of disulfiram and zinc gluconate was tested after 4 weeks at 40° C. in 0.1 N HCl. (Table 24).

[2] = Compatibility of disulfiram and zinc gluconate in 0.1N HCl (color, precipitate); type: physicochemical
Description: Compatibility of disulfiram and zinc gluconate for simultaneous oral administration was assessed. […] and 40 mg of disulfiram were mixed in 50 mL volumetric flasks, and 0.1N HCl was added to the flasks. […] A control was run in parallel: 0.1N HCl solution containing 50 mg of zinc gluconate alone.

Compound	Conc. (disulfiram found) [1]	color change ([2]; 25° C./ambient humidity for 2 days)	precipitate / clarity of solution ([2]; T0 and T=2 days, 25° C.)
CCN(CC)C(=S)SSC(=S)N(CC)CC [DSF, bis(diethylthiocarbamoyl) disulfide]	0.040 mg/mL	–	–
zinc gluconate [zinc gluconate alone]	–	no color change	remained clear
